{
  "source": "patent US6365590B1",
  "about": "“Compounds, compositions and methods for treating erectile dysfunction” (Saint Louis University, priority 1998, dated 2002)",
  "key": {"[1]": {"experiment": "pH of a 10 mM aqueous solution of the compound", "format": "physicochemical", "details": "22° C."}, "sperm": {"test_system": "sperm", "details": "cited from earlier work"}, "[2]": {"details": "concentrations up to 20%; cited from earlier work"}},
  "note": "Structures can show the parent of a compound that is named as a salt.",
  "data": [
    {"smiles": "CCCCCC(O)C=CC1C(O)CC(=O)C1CCCCCCC(=O)O.COc1cc2nc(N3CCN(C(=O)c4ccco4)CC3)nc(N)c2cc1OC", "note": "[prazosin alprostadilate]", "values": [
      {"measurement": "pH of a 10 mM aqueous solution", "setting": "[1]", "result": "6.32-6.38"}
    ]},
    {"smiles": "CCCCC[C@H](O)/C=C/[C@H]1[C@H](O)CC(=O)[C@@H]1CCCCCCC(=O)O", "note": "[alprostadil]", "values": [
      {"measurement": "effect on the viability of sperm", "setting": "sperm", "result": "no effect"}
    ]},
    {"smiles": "COc1cc2nc(N3CCN(C(=O)c4ccco4)CC3)nc(N)c2cc1OC", "note": "[prazosin hydrochloride]", "values": [
      {"measurement": "effect on the viability of sperm", "setting": "sperm", "result": "no effect"}
    ]},
    {"smiles": "CCCCC[C@H](O)/C=C/[C@H]1[C@H](O)CC(=O)[C@@H]1CCCCCCC(=O)O.CCN(CC)CC(=O)Nc1c(C)cccc1C", "note": "[lidocaine alprostadilate]", "values": [
      {"measurement": "pH of a 10 mM aqueous solution", "setting": "[1]", "result": "6.29-6.36"}
    ]},
    {"smiles": "COc1ccc(Cc2nccc3cc(OC)c(OC)cc23)cc1OC", "note": "[papaverine]", "values": [
      {"measurement": "effectiveness as a topical agent in erectile dysfunction", "setting": "[2]", "result": "not sufficiently effective for clinical use"}
    ]}
  ]
}
